According to patent US20180057505A1, “BICYCLIC HETEROARYL COMPOUNDS USEFUL AS INHIBITORS OF THE PAR-2 SIGNALING PATHWAY” (VERTEX PHARMACEUTICALS INCORPORATED, priority 2015, published 2018):

Experiments:
[1] = system: carrageenan induced paw edema; assay: Rat carrageenan-induced paw edema model; type: in vivo; conditions: given 0.5-3 hour before carrageenan
Protocol: Example 100: In Vivo Pharmacological Evaluation of PAR2 Pathway Inhibitors Subjects and Housing and Rat Carrageenan-Induced Paw Edema Model Male Sprague Dawley rats were housed in groups in a temperature controlled room and were acclimatized in the animal facility for at least three days prior to use. Experiments were performed during the light phase of the cycle. Animals have food and water ad libitum. Peripheral inflammation was induced by intra-plantar administration of 100 ul of a 1% w/volume (in saline) carrageenan solution under isoflurane anesthesia. The degree of swelling was assessed using the plethysmometer at 2-3-4-5-6 h after carrageenan injection. Test compound or vehicle (0.5% MC/0.1% SDS) was systemically administered at the indicated doses in a volume of 5 mL/kg either 0.5-3 hour before carrageenan challenge (Table 4).

[2] = In vivo rat pharmacokinetics experiments
Protocol: Example 99: Protocol for Testing PAR2 Compounds In Vivo Rat Pharmacokinetics Experiments
Compounds delivered by intravenous route were formulated using a solution formulation consisting of 5% N-methylpyrrolidone 10% Vitamin E-TPGS and 85% water (v/v/) or a solution formulation consisting of 25% N-methylpyrrolidone 35% polyethylene glycol 400 and 40% water (v/v/). Intravenous formulations were administered by a bolus injection (over approximately 10 seconds) using a hypodermic needle attaches to a syringe (tail vein). The dose volume was varied from 1 to 2 mL/kg and the dose was varied from 0.5 to 1 mg/kg. Compounds delivered orally were formulated as a solution formulation consisting of 5% N-methylpyrrolidone 10% Vitamin E-TPGS and 85% water (v/v/) or as fine suspension using a cellulose derivative suspending agent with or without the addition of a wetting agent/surfactant. Milling of large particles was performed as needed to reduce particle size using focused electroacoustic milling, homogenization or low energy media milling. A spray-dried solid dispersion was prepared for key compounds using 1:1 combination with cellulose derivatives. Test compounds were administered orally by gavage using a gavage plastic needle attached to a syringe. The dose volume was varied from 5 to 10 mL/kg and the dose was varied from 1 to 600 mg/kg.
Rats were bled by venipuncture (jugular vein) and the samples were collected into tubes containing K3EDTA. The tubes were placed on wet ice until processed. The samples were centrifuged for approximately 10 minutes (at approximately 4° C.) within approximately 30 minutes of collection to prepare plasma or diluted in citrate buffer (1:3) and stored frozen (approximately −30° C.). Thawed plasma or whole blood samples were extracted by protein precipitation using an organic solvent followed by centrifugation. The supernatants were separated by high-performance liquid chromatography coupled to mass spectrometry detection. A calibration curve was prepared using reference standard compounds spiked into either blank plasma or whole blood matrices and extracted similarly to unknown samples. Pharmacokinetic parameters were calculated using non-compartmental analysis.

[3] = system: UTP-stimulated Ca2+ response in HT-29 cells; assay: Ca FLIPR TETRA assay, ANTAGONIST mode, activator 0.6 μM UTP; type: cell-based; conditions: HT-29 cells, activator 0.6 μM UTP
Method in brief: (§1)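 Compounds are added to calcium 5-loaded HT-29 cells, read once for intrinsic Ca2+ activation, then incubated 30 min at room temperature. The same wells are then stimulated with a fixed final activator level and the Ca2+ response recorded on FLIPR Tetra.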

PAR2 (HT-29 cells) [4] = molecular target: T1, PAR2 (HT-29 cells) (Homo sapiens, UniProt P55085); assay: Ca FLIPR TETRA assay, ANTAGONIST mode, activator 3.1 U/mL trypsin; type: cell-based; conditions: HT-29 cells; activator 3.1 U/mL trypsin; Method A: maximal concentration of antagonist 0.1, 1 or 2 μM
T1 construct: host or cells: HT-29
T1 sequence (P55085 26-397): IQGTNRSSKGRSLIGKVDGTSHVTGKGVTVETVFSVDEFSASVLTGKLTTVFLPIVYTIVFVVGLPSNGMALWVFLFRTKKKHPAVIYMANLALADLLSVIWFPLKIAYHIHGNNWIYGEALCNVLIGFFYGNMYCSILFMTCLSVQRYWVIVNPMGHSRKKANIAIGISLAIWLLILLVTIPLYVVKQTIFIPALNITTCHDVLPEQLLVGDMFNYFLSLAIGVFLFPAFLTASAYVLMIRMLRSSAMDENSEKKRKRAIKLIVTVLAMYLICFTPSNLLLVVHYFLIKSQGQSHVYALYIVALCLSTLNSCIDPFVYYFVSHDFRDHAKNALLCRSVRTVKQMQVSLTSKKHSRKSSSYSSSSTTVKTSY
Method in brief: as §1

PAR2 (HT-29 cells) [5] = molecular target: T1, PAR2 (HT-29 cells); assay: Ca FLIPR TETRA assay, ANTAGONIST mode, activator 8 μM SLIGKV; type: cell-based; conditions: HT-29 cells; activator 8 μM SLIGKV; Method A: maximal concentration of antagonist 0.1, 1 or 2 μM
Method in brief: as §1

[6] = system: Thrombin-stimulated Ca2+ response in HT-29 cells; assay: Ca FLIPR TETRA assay, ANTAGONIST mode, activator 1 U/mL Thrombin; type: cell-based; conditions: HT-29 cells, activator 1 U/mL Thrombin
Method in brief: as §1

Row | Compound | IC50 ([3]; Homo sapiens) [nM] | IC50 (PAR2 (HT-29 cells) [4]) [nM] | IC50 (PAR2 (HT-29 cells) [5]) [nM] | IC50 ([6]; Homo sapiens) [nM] | other results
1 | CC(C)(C)c1cc(-c2ccc(Cl)c(F)c2)nc2cc(C(=O)N3CCN(c4cn[nH]c4)C(=O)C3(C)C)oc12 [Compound I-260] | – | – | – | – | % inhibition ([1]; dose 20 mg/kg): 0.4%; Clp ([2]; intravenous bolus 0.5 to 1 mg/kg, non-compartmental analysis): 3.4 mL/min/kg; T ½ ([2]; non-compartmental analysis): 30.7 h; F ([2]; oral gavage, dose 1 to 600 mg/kg): 87%
2 | CC1(C)CCC(c2cc(C(C)(C)C)c3oc(C(=O)N4CCN(C(=O)[C@H]5CC[C@@](C)(C(=O)O)CC5)CC4(C)C)cc3n2)CC1 [Example I-316] | > 2000 | 0.2 | 0.2 | > 2000 | % inhibition ([1]; dose 15 mg/kg): 50%; % inhibition ([1]; dose 40 mg/kg): 66%; % inhibition ([1]; dose 100 mg/kg): 81%; % inhibition ([1]; dose 250 mg/kg): 79%
3 | CC1(C)CCC(c2cc(C(C)(C)C)c3oc(C(=O)N4CCN(c5cccc(C(=O)O)n5)CC4(C)C)cc3n2)CC1 [Example I-449] | 660 | 1.9 | 0.9 | > 1010 | % inhibition ([1]; dose 40 mg/kg): 49%; % inhibition ([1]; dose 100 mg/kg): 73%
4 | Cc1ccc(N2CCN(C(=O)c3cc4nc(-c5ccc(Cl)c(F)c5)cc(C(C)(C)C)c4o3)C(C)(C)C2)nc1-c1nnn[nH]1 [Example I-532] | > 2000 | 0.3 | 0.3 | > 2000 | –
5 | Cc1ccc(N2CCN(C(=O)c3cc4nc(C5CCC(C)(C)CC5)cc(C(C)(C)C)c4o3)C(C)(C)C2)nc1-c1nnn[nH]1 [Example I-533] | > 2000 | 1.7 | 0.7 | > 2000 | –
6 | COc1nc(N2CCN(C(=O)c3cc4nc(C5CCC(C)(C)CC5)cc(C(C)(C)C)c4o3)C(C)(C)C2)ccc1C(=O)O [Example I-535] | – | 1.2 | 2.1 | – | IC50 [3]: > 2000 nM; IC50 [6]: > 2000 nM
7 | Cc1c(C(=O)O)ccnc1N1CCN(C(=O)c2cc3nc(-c4ccc(Cl)c(F)c4)cc(C(C)(C)C)c3o2)C(C)(C)C1 [Example I-538] | 1470 | 0.6 | 0.6 | 1500 | –
8 | CC(C)(C)c1cc(-c2ccc(Cl)c(F)c2)nc2cc(C(=O)N3CCN(c4cccc(C(=O)NS(C)(=O)=O)n4)CC3(C)C)oc12 [Example I-540] | > 2000 | 0.3 | 0.3 | > 2000 | –
9 | CC(C)(C)c1cc(-c2ccc(Cl)c(F)c2)nc2cc(C(=O)N3CCC(NC(=O)NS(C)(=O)=O)CC3(C)C)oc12 (stereo not drawn) [Example I-541] | > 2000 | 1 | 1.5 | > 2000 | –
10 | CC(C)(C)c1cc(-c2ccc(Cl)c(F)c2)nc2cc(C(=O)N3CCN(S(=O)(=O)NC4CC4)CC3(C)C)oc12 [Example I-542] | > 2000 | 28 | 32 | > 2000 | –
11 | CC(C)(C)c1cc(-c2ccc(Cl)c(F)c2)nc2cc(C(=O)N3CCN(C(=O)[C@@H]4CC[C@@H]4C(=O)O)CC3(C)C)oc12 [Example I-543] | > 2000 | 0.8 | 0.6 | > 2000 | –
12 | Cc1ncc(N2CCN(C(=O)c3cc4nc(C5CCC(C)(C)CC5)cc(C(C)(C)C)c4o3)C(C)(C)C2)nc1C(=O)O [Example I-544] | > 2000 | 3.3 | 2.5 | > 2000 | –
13 | CC(C)(C)c1cc(-c2ccc(Cl)c(F)c2)nc2cc(C(=O)N3CCN(C(=O)CC4(C(=O)O)CCCCC4)CC3(C)C)oc12 [Example I-547] | > 2000 | 0.1 | 0.09 | > 2000 | –
14 | CNC1CCN(C(=O)c2cc3nc(-c4ccc(Cl)c(F)c4)cc(C(C)(C)C)c3o2)C(C)(C)C1 (stereo not drawn) [Example I-549] | > 2000 | 1400 | 1100 | > 2000 | –

Continued by falling IC50 (PAR2 (HT-29 cells) [4]), values first:

Row | IC50 ([3]; Homo sapiens) [nM] | IC50 (PAR2 (HT-29 cells) [4]) [nM] | IC50 (PAR2 (HT-29 cells) [5]) [nM] | IC50 ([6]; Homo sapiens) [nM] | Compound | other results
15 | 1800 | 640 | 690 | > 2000 | CC(C)(C)c1cc(-c2ccc(Cl)c(F)c2)nc2cc(C(=O)N3CCC(N)CC3(C)C)oc12 (stereo not drawn) [Example I-548] | –
16 | > 2000 | 7.4 | 5.4 | > 2000 | CC(C)(C)c1cc(-c2ccc(Cl)c(F)c2)nc2cc(C(=O)N3CCN(c4cccc(C(N)=O)n4)CC3(C)C)oc12 [Example I-546] | –
17 | > 2000 | 2.2 | 2.3 | > 2000 | CC(C)(C)c1cc(-c2ccc(Cl)cc2)nc2cc(C(=O)N3CCN(C(=O)[C@@H]4CC[C@H](C(=O)O)C4)CC3(C)C)oc12 [Example I-536] | –
18 | – | 2.2 | 1.5 | – | CC1(C)CCC(c2cc(C(C)(C)C)c3oc(C(=O)N4CCN(c5ccc(-c6nnn[nH]6)cn5)CC4(C)C)cc3n2)CC1 [Example I-539] | IC50 [3]: > 2000 nM; IC50 [6]: > 2000 nM
19 | > 2000 | 0.9 | 0.6 | > 2000 | CC(C)(C)c1cc(-c2ccc(Cl)c(F)c2)nc2cc(C(=O)N3CCN(C(=O)[C@@H]4CCC[C@@H]4C(=O)O)CC3(C)C)oc12 [Example I-545] | –
20 | > 2000 | 0.4 | 0.3 | > 2000 | Cc1ccc(N2CCN(C(=O)c3cc4nc(-c5ccc(Cl)cc5)cc(C(C)(C)C)c4o3)C(C)(C)C2)nc1-c1nnn[nH]1 [Example I-537] | –
21 | > 2000 | 0.1 | 0.2 | > 2000 | COc1cc(N2CCN(C(=O)c3cc4nc(-c5ccc(Cl)c(F)c5)cc(C(C)(C)C)c4o3)C(C)(C)C2)ncc1C(=O)O [Example I-534] | –
